# Data published in ChEMBL document CHEMBL4396891, “Recent update on anti-dengue drug discovery” (Eur J Med Chem, 2019).
# Tests used:
# dengue virus type 2 [1] = assay: Antiviral activity against DENV2 infected in BHK cells assessed as reduction in viral Yield at 20 uM after 48 hrs by fluorescence focus formation assay relative to control; type: functional; parameters: scale not given: the % may be the effect or the level left
# dengue virus type 2 [2] = assay: Antiviral activity against DENV2 infected in human Huh7 cells assessed as reduction in viral Yield at 20 uM after 48 hrs by fluorescence focus formation assay relative to control; type: functional; parameters: scale not given: the % may be the effect or the level left
# Dengue virus = assay: Antiviral activity against Dengue virus infected in human HepG2 cells assessed as viral production at 150 uM after 1 hrs by flow cytometry analysis relative to control; type: functional
# dengue virus type 2 [3] = assay: Antiviral activity against DENV2 infected in BHK-21 cells; type: functional, organism-based
# dengue virus type 1 [4] = assay: Antiviral activity against DENV1 infected in human HepG2 cells assessed as reduction in viral infection at 20 uM after 24 to 72 hrs by FFU assay relative to control; type: functional; parameters: scale not given: the % may be the effect or the level left
# dengue virus type 3 [5] = assay: Antiviral activity against DENV3 infected in human HepG2 cells assessed as reduction in viral infection at 20 uM after 24 to 72 hrs by FFU assay relative to control; type: functional; parameters: scale not given: the % may be the effect or the level left
# dengue virus type 2 [6] = assay: Antiviral activity against DENV2 infected in human HepG2 cells assessed as reduction in viral infection at 20 uM after 24 to 72 hrs by FFU assay relative to control; type: functional; parameters: scale not given: the % may be the effect or the level left
# dengue virus type 2 [7] = assay: Antiviral activity against DENV2 infected in […] BHK-15 cells after 48 hrs by luciferase reporter gene assay; type: functional, organism-based; details: BHK15, 48 h
# dengue virus type 4 [8] = assay: Antiviral activity against DENV4 infected in human HepG2 cells assessed as reduction in viral infection at 20 uM after 24 to 72 hrs by FFU assay relative to control; type: functional; parameters: scale not given: the % may be the effect or the level left
# dengue virus type 1 [9] = assay: Antiviral activity against DENV1 infected in mouse RAW 264.7 cells by MTT assay; type: functional, organism-based; details: RAW264.7
# Genome polyprotein [10] = target: T1, Genome polyprotein (dengue virus type 2, UniProt P29990); assay: Inhibition of Dengue virus NS2B-NS3 serine protease expressed in mouse RAW 264.7 cells; type: cell-based
# T1 sequence (P29990 1346-1475 limits assumed): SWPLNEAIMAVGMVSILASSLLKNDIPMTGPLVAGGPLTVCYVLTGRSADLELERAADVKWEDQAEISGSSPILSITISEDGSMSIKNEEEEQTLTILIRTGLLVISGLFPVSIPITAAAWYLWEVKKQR
# T1 sequence (P29990 1476-2093 limits assumed): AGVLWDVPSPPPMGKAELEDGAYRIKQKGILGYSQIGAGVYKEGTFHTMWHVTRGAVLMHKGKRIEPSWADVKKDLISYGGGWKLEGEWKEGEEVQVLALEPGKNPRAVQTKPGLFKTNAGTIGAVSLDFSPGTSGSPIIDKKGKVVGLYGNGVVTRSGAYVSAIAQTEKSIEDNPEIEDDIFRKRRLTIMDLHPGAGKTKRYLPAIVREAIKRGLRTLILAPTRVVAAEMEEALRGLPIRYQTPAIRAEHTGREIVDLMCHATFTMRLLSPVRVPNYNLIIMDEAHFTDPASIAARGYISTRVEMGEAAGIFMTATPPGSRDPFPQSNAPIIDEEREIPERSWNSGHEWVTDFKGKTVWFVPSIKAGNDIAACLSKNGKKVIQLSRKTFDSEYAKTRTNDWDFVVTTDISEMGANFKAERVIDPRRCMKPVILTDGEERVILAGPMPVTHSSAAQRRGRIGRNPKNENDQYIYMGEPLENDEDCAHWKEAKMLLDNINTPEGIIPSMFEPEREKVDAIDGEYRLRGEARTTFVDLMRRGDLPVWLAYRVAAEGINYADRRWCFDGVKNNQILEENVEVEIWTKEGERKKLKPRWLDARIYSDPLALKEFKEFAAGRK
# dengue virus type 3 [11] = assay: Antiviral activity against DENV3 infected in mouse RAW 264.7 cells by MTT assay; type: functional, organism-based; details: RAW264.7
# dengue virus type 4 [12] = assay: Antiviral activity against DENV4 infected in mouse RAW 264.7 cells by MTT assay; type: functional, organism-based; details: RAW264.7
# dengue virus type 2 [13] = assay: Antiviral activity against DENV2 infected in mouse RAW 264.7 cells by MTT assay; type: functional, organism-based; details: RAW264.7
# dengue virus type 2 [14] = assay: Virucidal activity against DENV2 infected in human HeLa cells; type: functional, organism-based
# dengue virus type 2 [15] = assay: Virucidal activity against DENV2 infected in human HepG2 cells; type: functional, organism-based
# dengue virus type 2 [16] = assay: Antiviral activity against DENV2 infected in African green monkey Vero cells assessed as reduction in viral replication after 4 days by qRT-PCR analysis; type: functional, organism-based; details: 96 h
# dengue virus type 4 [17] = assay: Antiviral activity against DENV4 infected in African green monkey Vero cells assessed as reduction in viral replication after 4 days by qRT-PCR analysis; type: functional, organism-based; details: 96 h
# dengue virus type 1 [18] = assay: Antiviral activity against DENV1 infected in African green monkey Vero cells assessed as reduction in viral replication after 4 days by qRT-PCR analysis; type: functional, organism-based; details: 96 h
# dengue virus type 3 [19] = assay: Antiviral activity against DENV3 infected in African green monkey Vero cells assessed as reduction in viral replication after 4 days by qRT-PCR analysis; type: functional, organism-based; details: 96 h
# Genome polyprotein [20] = target: T1, Genome polyprotein; assay: Inhibition of His-tagged DENV2 NS2B-NS3 serine protease expressed in Escherichia coli BL21 using Boc-Gly-Arg-Arg-7-amino-4-methylcoumarin as substrate measured after 10 mins by fluorometric assay
# dengue virus type 2 [21] = assay: Antiviral activity against DENV2 infected in monkey LLC-MK2 cells assessed as reduction in plaque formation after 72 hrs by 96-well based plaque titration method; type: functional, organism-based; details: LLC-MK2, 72 h
# dengue virus type 2 [22] = assay: Antiviral activity against DENV2 infected in African green monkey Vero cells assessed as reduction in plaque formation after 72 hrs by 96-well based plaque titration method; type: functional, organism-based
# dengue virus type 2 [23] = assay: Antiviral activity against DENV2 infected in monkey LLC-MK2 cells; type: functional, organism-based
# dengue virus type 2 [24] = assay: Antiviral activity against DENV2 16681 infected in HEK293 cells after 72 hrs by luciferase reporter gene assay; type: functional, organism-based; details: Dengue virus, 16681, HEK293, 72 h
# dengue virus type 2 [25] = assay: Antiviral activity against DENV2 […] infected in African green monkey Vero cells by qRT-PCR analysis; type: functional, organism-based
# dengue virus type 1 [26] = assay: Antiviral activity against DENV1 infected in human Huh7 cells assessed as reduction in viral yield after 48 hrs by MTT assay; type: functional, organism-based; details: Huh-7, 48 h, pooled result: one value given for 4 cell lines, strains, targets or settings
# dengue virus type 2 [27] = assay: Antiviral activity against DENV2 after 48 hrs by focus reduction assay; type: functional, organism-based
# dengue virus type 4 [28] = assay: Antiviral activity against DENV4 after 48 hrs by focus reduction assay; type: functional, organism-based
# dengue virus type 3 [29] = assay: Antiviral activity against DENV3 after 48 hrs by focus reduction assay; type: functional, organism-based
# dengue virus type 1 [30] = assay: Antiviral activity against DENV1 after 48 hrs by focus reduction assay; type: functional, organism-based
structure (smiles),measurement,setting,value
C=CCc1ccc(O)c(-c2ccc(O)c(CC=C)c2)c1 [HONOKIOL],Activity,dengue virus type 2 [1],>90%
same,Activity,dengue virus type 2 [2],>90%
C=C[C@H]1CN2CC[C@H]1C[C@H]2[C@H](O)c1ccnc2ccc(OC)cc12 [QUININE],Activity,Dengue virus,19%
O=c1c(O)c(-c2ccc(O)c(O)c2)oc2cc(O)cc(O)c12 [QUERCETIN],IC50,dengue virus type 2 [3],176 µg/mL
COc1c(O)cc2oc3cc(O)c(CC=C(C)C)c(O)c3c(=O)c2c1CC=C(C)C [MANGOSTIN],Activity,dengue virus type 1 [4],47 - 55%
same,Activity,dengue virus type 3 [5],47 - 55%
same,Activity,dengue virus type 2 [6],47 - 55%
same,EC50,dengue virus type 2 [7],10 µM
same,Activity,dengue virus type 4 [8],47 - 55%
CC(=O)O[C@H]1CC(C)(C)C(=C=C/C(C)=C/C=C/C=C/C=C(C)/C=C2C=C(/C=C/[C@@]34O[C@]3(C)C[C@@H](O)CC4(C)C)C(=O)O/2)[C@](C)(O)C1,EC50,dengue virus type 1 [9],5.84 to 7.62 µM
same,EC50,Genome polyprotein [10],8.5 µM
same,EC50,dengue virus type 3 [11],5.84 to 7.62 µM
same,EC50,dengue virus type 4 [12],5.84 to 7.62 µM
same,EC50,dengue virus type 2 [13],5.84 to 7.62 µM
C=C1CC[C@@H]2[C@](C)(CO)[C@H](O)CC[C@@]2(C)[C@@H]1C/C=C1/C(=O)OC[C@H]1O [ANDROGRAPHOLIDE],EC50,dengue virus type 2 [14],22.7 µM
same,EC50,dengue virus type 2 [15],21.3 µM
O=C(Nc1nc2cc(O)c(O)cc2s1)c1ccccc1Sc1ccc(C(F)(F)F)cc1,EC50,dengue virus type 2 [16],0.1 µM
same,EC50,dengue virus type 4 [17],0.1 µM
same,EC50,dengue virus type 1 [18],0.1 to 3 µM
same,EC50,dengue virus type 3 [19],0.1 µM
same,IC50,Genome polyprotein [20],3.6 µM
COc1cc2c(c(O)c1C)C(=O)CC(c1ccccc1)O2 (stereo unspecified) [STROBOPININ-7-METHYLETHER],EC50,dengue virus type 2 [21],3.72 µM
same,EC50,dengue virus type 2 [22],12.3 µM
C=C(C)[C@@H]1CC[C@]2(C)CC[C@]3(C)[C@H](CC[C@@H]4[C@@]5(C)CC[C@H](O)C(C)(C)[C@@H]5CC[C@]43C)[C@@H]12 [LUPEOL],EC50,dengue virus type 2 [23],9.77 µM
CN1CCN(C2Cc3ccc(F)cc3Sc3ccc(O)cc32)CC1 (stereo unspecified),IC50,dengue virus type 2 [24],1.2 µM
CC[C@@H]([C@H](C)O)n1ncn(-c2ccc(N3CCN(c4ccc(OC[C@@H]5CO[C@@](Cn6cncn6)(c6ccc(F)cc6F)C5)cc4)CC3)cc2)c1=O [POSACONAZOLE],EC50,dengue virus type 2 [25],4.1 µM
O=C1[C@H](CC[C@H](O)c2ccc(F)cc2)[C@@H](c2ccc(O)cc2)N1c1ccc(F)cc1 [EZETIMIBE],IC50,dengue virus type 1 [26],13.1 µM
C[C@H]1CCC/C=C/[C@@H]2C[C@H](O)C[C@H]2[C@H](O)/C=C/C(=O)O1 [BREFELDIN A],EC50,dengue virus type 2 [27],54.6 to 65.7 µM
same,EC50,dengue virus type 4 [28],54.6 to 65.7 µM
same,EC50,dengue virus type 3 [29],54.6 to 65.7 µM
same,EC50,dengue virus type 1 [30],54.6 to 65.7 µM
